Measured values reported in patent US9840467B2, “Arylhydrazides containing a 2-pyridone moiety as selective antibacterial agents” (ABAC THERAPEUTICS, S.L., priority 2014, dated 2017).
Converted amounts (≈) assume the structure as drawn. Like-named read-outs stand apart in the source and are kept apart here.

Key:
[1] = test system: E. faecium; assay: MIC, CLSI microtiter dilution, E. faecium; assay type: cell-based, Enterococcus faecium; details: Enterococcus faecium
Protocol: (§1) The products of the present invention were tested for their activity against A. baumannii as well as against the following bacteria: Staphylococcus aureus (S. aureus), Streptococcus pneumoniae (S. pneumoniae), Enterococcus faecium (E. faecium), Pseudomonas aeruginosa (P. aeruginosa), Klebsiella pneumoniae (K. pneumoniae.), Enterobacter aerogenes (E. aerogenes) and Escherichia coli (E. coli).
(§2) Minimal inhibitory concentrations (MICs) were determined using a standard microtiter dilution method, according to the Clinical and Laboratory Standards Institute (CLSI) procedures, in particular according to M07-A9: “Methods for Dilution Antimicrobial Susceptibility Tests for Bacteria That Grow Aerobically; Approved Standard—Ninth Edition”.
(§3) Briefly, compounds were dissolved with dimethyl sulfoxide (DMSO) at 12.8 mg/mL. Serial two-fold dilutions of compounds were performed in DMSO and 1 μl of each dilution were transferred into microtiter culture plates, followed by 100 μl of inoculated culture media to give a final microorganism concentration of 5×10^5 colony-forming units/mL. Plates were incubated at 37° C. for 24 hours and MICs determined as the lowest compound concentration that inhibited growth. Media used in determinations were Cation adjusted Mueller-Hinton Broth for all the microorganisms except for S. pneumoniae and E. faecium whose culture media were supplemented with 2.5% of lysed horse blood. Incubations were performed at air atmosphere except S. pneumoniae cultures that were incubated with 5% CO2 atmosphere.

[2] = test system: A. baumannii; assay: MIC, CLSI microtiter dilution, A. baumannii; assay type: cell-based, Acinetobacter baumannii; details: Acinetobacter baumannii
Protocol: as §1, §2, §3

[3] = test system: P. aeruginosa; assay: MIC, CLSI microtiter dilution, P. aeruginosa; assay type: cell-based, Pseudomonas aeruginosa; details: Pseudomonas aeruginosa
Protocol: as §1, §2, §3

[4] = test system: E. coli; assay: MIC, CLSI microtiter dilution, E. coli; assay type: cell-based, Escherichia coli; details: Escherichia coli
Protocol: as §1, §2, §3

[5] = test system: S. pneumoniae; assay: MIC, CLSI microtiter dilution, S. pneumoniae; assay type: cell-based, Streptococcus pneumoniae; details: Streptococcus pneumoniae
Protocol: as §1, §2, §3

[6] = test system: K. pneumoniae; assay: MIC, CLSI microtiter dilution, K. pneumoniae; assay type: cell-based, Klebsiella pneumoniae; details: Klebsiella pneumoniae
Protocol: as §1, §2, §3

[7] = test system: E. aerogenes; assay: MIC, CLSI microtiter dilution, E. aerogenes; assay type: cell-based, Enterobacter aerogenes; details: Klebsiella aerogenes
Protocol: as §1, §2, §3

[8] = test system: S. aureus; assay: MIC, CLSI microtiter dilution, S. aureus; assay type: cell-based, Staphylococcus aureus; details: Staphylococcus aureus
Protocol: as §1, §2, §3

Row | MIC ([1]; E. faecium, 37° C., 24 hours, 2.5% lysed horse blood, read-out: MIC) | MIC ([2]; A. baumannii, 37° C., 24 hours, Cation adjusted Mueller-Hinton Broth, read-out: MIC) | MIC ([3]; P. aeruginosa, 37° C., 24 hours, Cation adjusted Mueller-Hinton Broth, read-out: MIC) | MIC ([4]; E. coli, 37° C., 24 hours, Cation adjusted Mueller-Hinton Broth, read-out: MIC) | MIC ([5]; S. pneumoniae, 37° C., 24 hours, 2.5% lysed horse blood, 5% CO2, read-out: MIC) | MIC ([6]; K. pneumoniae, 37° C., 24 hours, Cation adjusted Mueller-Hinton Broth, read-out: MIC) | MIC ([7]; E. aerogenes, 37° C., 24 hours, Cation adjusted Mueller-Hinton Broth, read-out: MIC) | MIC ([8]; S. aureus, 37° C., 24 hours, Cation adjusted Mueller-Hinton Broth, read-out: MIC) | Structure (SMILES) | MIC ([1]; 24 h) | MIC ([2]; 24 h) | MIC ([3]; 24 h) | MIC ([4]; 24 h) | MIC ([5]; 24 h) | MIC ([6]; 24 h) | MIC ([7]; 24 h) | MIC ([8]; 24 h)
1 |  |  |  |  |  |  |  |  | Cn1c(C(=O)NNc2c(F)cccc2F)cccc1=O [Ex. 13, 1-Methyl-6-oxo-1,6-dihydropyridine-2-carboxylic acid N′-(2,6-difluorophenyl)-hydrazide] | > 128 µg/mL | 0.5 µg/mL (≈ 1.79 µM) | > 128 µg/mL | > 128 µg/mL | > 128 µg/mL | > 128 µg/mL | > 128 µg/mL | > 128 µg/mL
2 | > 128 µg/mL | 0.5 µg/mL (≈ 1.82 µM) | > 128 µg/mL | > 128 µg/mL | > 128 µg/mL | > 128 µg/mL | > 128 µg/mL | > 128 µg/mL | CCn1cccc(C(=O)NNc2ccc(F)cc2)c1=O [Ex. 16, 1-Ethyl-2-oxo-1,2-dihydropyridine-3-carboxylic acid N′-(4-fluorophenyl)-hydrazide] |  |  |  |  |  |  |  | 
3 |  |  |  |  |  |  |  |  | C#CCn1c(C(=O)NNc2ccc(F)cc2)cccc1=O [Ex. 7, 1-(Prop-2-yn-1-yl)-6-oxo-1,6-dihydropyridine-2-carboxylic acid N′-(4-fluorophenyl)-hydrazide] | > 128 µg/mL | 0.25 µg/mL (≈ 0.876 µM) | > 128 µg/mL | > 128 µg/mL | > 128 µg/mL | > 128 µg/mL | > 128 µg/mL | > 128 µg/mL
